Measured values reported in patent publication US20260055081A1, “Metal Chelator Compounds, Coordination Complexes, and Methods of Preparation and Use Thereof” (University of Puerto Rico, priority 2022, published 2026).

Legend:
Leukemia cell lines = assay: NCI 60 five-dose screen, leukemia panel; assay type: cell-based, human
Protocol: National Cancer Institute Cancer Cell Line (NCI 60) Screen of DefNEtTrp. Details of the methodology for NCI 60 cell line screening are described at http://dtp.nci.nih.gov/branches/btb/ivclsp.html. The cells, grown in supplemented RPMI-1640 medium, are seeded in 96 well plates at an appropriate density and incubated for 24 h. The test compounds are dissolved in DMSO and incubated with cells at a single dose of 10.0 μM for 48 h. The assay is terminated by addition of cold trichloroacetic acid, and the cells are fixed and stained with sulforhodamine B. Bound stain is solubilized, and the absorbance is read on an automated plate reader. […] Using the seven absorbance measurements [time zero, […], control growth, (C), and test growth in the presence of drug at the five concentration levels (Tf)], the percentage growth was calculated at each of the drug concentrations levels as: [(Tf−Ti)/(C−Ti)]×100 for concentrations for which Tf≥Ti and [(Tf−Ti)/Ti]×100 for concentrations for which Tf<Ti. Three-dose response parameters (GI50, TGI, and LC50) were calculated for each of the experimental agents in five dose assay. Growth inhibition of 50% (GI50) was calculated from 100×[(Tf−Ti)/(C−Ti)]=50, which was the drug concentration resulting in a 50% reduction in the net protein increase (as measured by sulforhodamine B, SRB staining) in control cells during the drug incubation. The total growth inhibition (TGI) was calculated from Tf=Ti, which was the drug concentration resulting in total growth inhibition and signified the cytostatic effect. The 50% cellular death (LC50) was calculated from 100×[(Tf−Ti)/Ti]=−50, indicating a net loss of cells following treatment which indicated the concentration of drug resulting in a 50% reduction in the measured protein at the end of the drug treatment as compared to that at the beginning. […] Log GI50, log TGI, and log LC50 are the logarithm molar concentrations producing 50% growth inhibition (GI50), a total growth inhibition (TGI), and a 50% cellular death (LC50), respectively.

Melanoma cell lines = assay: NCI 60 five-dose screen, melanoma panel; assay type: cell-based, human; details: 48 h
Protocol: National Cancer Institute Cancer Cell Line (NCI 60) Screen of DefNEtTrp. Details of the methodology for NCI 60 cell line screening are described at http://dtp.nci.nih.gov/branches/btb/ivclsp.html. The cells, grown in supplemented RPMI-1640 medium, are seeded in 96 well plates at an appropriate density and incubated for 24 h. The test compounds are dissolved in DMSO and incubated with cells at a single dose of 10.0 μM for 48 h. The assay is terminated by addition of cold trichloroacetic acid, and the cells are fixed and stained with sulforhodamine B. Bound stain is solubilized, and the absorbance is read on an automated plate reader. […] Using the seven absorbance measurements [time zero, […], control growth, (C), and test growth in the presence of drug at the five concentration levels (Tf)], the percentage growth was calculated at each of the drug concentrations levels as: [(Tf−Ti)/(C−Ti)]×100 for concentrations for which Tf≥Ti and [(Tf−Ti)/Ti]×100 for concentrations for which Tf<Ti. Three-dose response parameters (GI50, TGI, and LC50) were calculated for each of the experimental agents in five dose assay. […] The total growth inhibition (TGI) was calculated from Tf=Ti, which was the drug concentration resulting in total growth inhibition and signified the cytostatic effect. […]

## Nc1cccnc1/C=N/NC(=S)NCCNC(=O)c1ccc(-n2nc(-c3ccccc3O)nc2-c2ccccc2O)cc1 [DefNEtTrp, deferasirox nitrogen ethyl triapine]
Leukemia cell lines; Homo sapiens, Leukemia, five-dose, 48 h, read-out: GI50 (calculated average)
  GI50: 290 nM
Leukemia cell lines; Leukemia, five-dose, 48 h, cell lines in which TGI was observed
  TGI (calculated average): 1780 nM
Leukemia cell lines; NCI screen
  antiproliferative behavior against all leukemia cell lines in the NCI screen: ~100%
Melanoma cell lines; cell lines in which TGI was observed
  TGI (calculated average): 4730 nM
Melanoma cell lines; Homo sapiens, read-out: GI50 (calculated average)
  GI50: 610 nM
